Results: patent publication US4910208A, “Method of inhibiting leukotriene biosynthesis by oral administration of p-aminophenols or derivatives thereof” (E. R. Squibb & Sons, Inc., priority 1988, dated 1990)
Where two headings read alike, the source gives them in different places.

Key:
[1] = test system: SRS-mediated bronchoconstriction; test: Standard assay for inhibitors of SRS-mediated bronchoconstriction in sensitized guinea pigs; format: in vivo, guinea pig (male Hartly); settings: for antiasthmatic activity when administered orally: oral; for ED50: Cavia porcellus, po, 1 h
Protocol: Guinea pigs sensitized to ovalbumin and challenged intravenously with this antigen in the presence of the cyclooxygenase inhibitor, indomethacin (IM), an antihistamine, methapyriline, and a beta-antagonist, propranolol,undergo a delayed (3-13 minutes) bronchospasm, presumed due to the synthesis and release of SRS (leukotriene C, D, and E). A Buxco respiratory mechanics analyzer is used to evaluate the in vivo efficacy of inhibitors of the lipoxygenase pathway in this model of SRS-mediated bronchoconstriction. This system monitors pulmonary air flow, through use of a whole body plethysomgraph, and transpulmonary pressure, from tracheal and intrapleural catheters. Tidal volume is derived from the flow signal by integration, and airway resistance (R) and dynamic compliance (^C dyn) are continuously computed by the system from the primary flow, volume, and pressure parameters. In addition, the system continuously monitors blood pressure and heart rate.
Male Hartly guinea pigs (200 g) ar sensitized by injecting ovalbumin (OA) (10 mg/kg) (each injection also contains 16 mg Amphojel) ip o days 0 and 2. These animals are normally used on days 10-18 following initial sensitization.
On the test day animals are anesthetized by ip injection of urethane (1.2-1.5 g/kg. The jugular vein and carotid artery are catheterized using intramedic PR50 tubing. The trachea is catheterized using intramedic PE240 tubing. Spontaneous respiration is arrested by injecting succinyl choline (2.0 mg/kg, iv) into the jugular vein, and the animal is artificially respirated at 48 breaths/minute with a volume of 4.0 ml/breath. Intramedic PE200 tubing is inserted through the chest wall into the intrapleural space, and the tracheal (by sidearm attachment) and intrapleural cannulas are attached to a single pressure transducer in order to obtain the transpulmonary pressure. The standard protocol requires an initial injection of indomethacin (meglumine salt) (10 mg/kg, iv). Five minutes later antihistamine (methapyrilene, 2 mg/kg, iv) is given, followed one minute later by propranolol (0.1 mg/kg, iv) to induce leukotriene induced bronchoconstriction with no histamine-induced bronchoconstriction and no beta-agonistic bronchoconstriction. Respiratory parameters are then allowed to stabilize for 5-15 minutes. Drugs are tested for oral activity by giving the compound by gavage to 18 hour fasted animals one hour prior to anesthetization. At restabilization, base lines are recorded by the computer for all parameters. To induce bronchoconstriction, a challenge dose of OA (0.4 mg/kg, iv) is given.
Results are expressed as % of baseline values after antigen challenge for R and ^C dyn, and percent inhibition is calculated by comparing % changes in baseline values between control (vehicle) and drug treated test groups.
Statistical significance is determined using a two tailed, unpaired T-test. Drug effects with p<0.05 will be considered significant.
Test compounds were evaluated for their ability to inhibit SRS-mediated changes in dynamic compliance (^C dyn) and resistance (R) as compared to the medicated (indomethacin-methapyrilenepropranolol) control group.

[2] = test system: SRS-mediated bronchoconstriction; test: as above; format: in vivo, guinea pig (male Hartly); settings: 10 mg/kg, iv less than one minute before OA challenge
[3] = 50.0 mg/kg P.O., one hour before i.v. antigen challenge
[4] = 5.0 mg/kg P.O., one hour before i.v. antigen challenge
[5] = 12.5 mg/kg P.O., one hour before i.v. antigen challenge
[6] = 25.0 mg/kg P.O., one hour before i.v. antigen challenge
[7] = P.O., one hour before i.v. antigen challenge, read-out: ED50^Cdyn (dose producing 50% inhibition of SRS-mediated changes in dynamic compliance)
[8] = P.O., one hour before i.v. antigen challenge, read-out: ED50^R (dose producing 50% inhibition of SRS-mediated changes in resistance)
[9] = 3.0 mg/kg P.O., one hour before i.v. antigen challenge
[10] = 6.0 mg/kg P.O., one hour before i.v. antigen challenge
[11] = 9.0 mg/kg P.O., one hour before i.v. antigen challenge

Row | Structure (SMILES) | Dynamic Compliance (Cdyn), % of baseline following antigen challenge (mean ± S.E.) [1, 3] | Dynamic Compliance (Cdyn), Inhibition (%) [1, 3] [%] | Resistance (R), % of baseline following antigen challenge (mean ± S.E.) [1, 3] | Resistance (R), Inhibition (%) [1, 3] [%] | antiasthmatic activity when administered orally [1] | Dynamic Compliance (Cdyn), % of baseline following antigen challenge (mean ± S.E.) [1, 5] | Dynamic Compliance (Cdyn), Inhibition (%) [1, 5] [%] | Resistance (R), % of baseline following antigen challenge (mean ± S.E.) [1, 5] | Resistance (R), Inhibition (%) [1, 5] [%] | Dynamic Compliance (Cdyn), % of baseline following antigen challenge (mean ± S.E.) [1, 6] | Dynamic Compliance (Cdyn), Inhibition (%) [1, 6] [%] | Resistance (R), % of baseline following antigen challenge (mean ± S.E.) [1, 6] | Resistance (R), Inhibition (%) [1, 6] [%] | ED50 [1, 7] [mg/kg] | ED50 [1, 8] [mg/kg] | further results
1 | COc1ccc(Nc2ccc(O)cc2)c(CO)c1 [SQ 30,624, 2-[(4-Hydroxyphenyl)amino]-5-methoxybenzenemethanol, reference compound] | 4 ± 3 % of Baseline | 0 | 386 ± 64 % of Baseline | 15 | did not have antiasthmatic activity |  |  |  |  |  |  |  |  |  |  | oral activity ([1]; dose of 50 mg/kg P.O.): orally inactive
2 | COc1ccc2cc(Nc3ccc(O)cc3)ccc2c1 [Example 2, 4-[(6-Methoxy-2-naphthyl)amino]phenol] | 66 ± 4 % of Baseline | 57 | 149 ± 11 % of Baseline | 84 | exhibit antiasthmatic activity | 44 ± 5 % of Baseline | 33 | 231 ± 39 % of Baseline | 57 | 62 ± 7 % of Baseline | 52 | 194 ± 42 % of Baseline | 69 | 23.8 | 6 | Dynamic Compliance (Cdyn), % of baseline following antigen challenge (mean ± S.E.) [1, 4]: 23 ± 7 % of Baseline; Dynamic Compliance (Cdyn), Inhibition (%) [1, 4]: 3%; Resistance (R), % of baseline following antigen challenge (mean ± S.E.) [1, 4]: 335 ± 74 % of Baseline; Resistance (R), Inhibition (%) [1, 4]: 23%; oral activity ([1]; P.O., one hour before antigen challenge): orally active; ED50^Cdyn (dose producing 50% inhibition of SRS-mediated changes in dynamic compliance) ([1]; P.O., one hour before i.v. antigen challenge): 23.8(14.1-51.7) mg/kg
3 | CCCc1c(OCC(O)COc2ccc3c(=O)cc(C(=O)O)oc3c2CCC)ccc(C(C)=O)c1O (stereo not shown) [FPL-55712] |  |  |  |  |  |  |  |  |  |  |  |  |  |  |  | inhibition of bronchoconstriction as measured by effects on R and Cdyn [2]: 100%
4 | COc1ccc2cc(N(C)c3ccc(O)cc3)ccc2c1 [Example 17] |  |  |  |  | exhibit antiasthmatic activity | 64 ± 7 % of Baseline | 56 | 136 ± 10 % of Baseline | 88 | 57 ± 10 % of Baseline | 47 | 149 ± 23 % of Baseline | 82 | 6 to 9 | 6 to 9 | Dynamic Compliance (Cdyn), % of baseline following antigen challenge (mean ± S.E.) [1, 9]: 19 ± 11 % of Baseline; Dynamic Compliance (Cdyn), Inhibition (%) [1, 9]: 0%; Resistance (R), % of baseline following antigen challenge (mean ± S.E.) [1, 9]: 467 ± 134 % of Baseline; Resistance (R), Inhibition (%) [1, 9]: 0%; Dynamic Compliance (Cdyn), % of baseline following antigen challenge (mean ± S.E.) [1, 10]: 31 ± 20 % of Baseline; Dynamic Compliance (Cdyn), Inhibition (%) [1, 10]: 15%; Resistance (R), % of baseline following antigen challenge (mean ± S.E.) [1, 10]: 374 ± 132 % of Baseline; Resistance (R), Inhibition (%) [1, 10]: 1%; Dynamic Compliance (Cdyn), % of baseline following antigen challenge (mean ± S.E.) [1, 11]: 64 ± 8 % of Baseline; Dynamic Compliance (Cdyn), Inhibition (%) [1, 11]: 56%; Resistance (R), % of baseline following antigen challenge (mean ± S.E.) [1, 11]: 141 ± 28 % of Baseline; Resistance (R), Inhibition (%) [1, 11]: 85%; inhibition of antigen-induced bronchoconstriction ([1]; PO one hour before antigen challenge): significantly inhibited
